Measured values as given in BindingDB's records for patent US12319672 (Idorsia Pharmaceuticals, 2025).

Tests used:
Galectin-1 = Galectin-1 (Homo sapiens, UniProt P09382); assay: Inhibitory Activity Assay
Method: (§1) The inhibitory activity of compounds is determined in competitive binding assays. This spectrophotometric assay measures the binding of biotinylated human Gal-3 (hGal-3) or human Gal-1 (hGal-1), respectively, to a microplate-adsorbed glycoprotein, asialofetuin (ASF) (Proc Natl Acad Sci USA. 2013 Mar. 26; 110(13):5052-7.). Alternatively, and preferably, a human Gal-1 version in which all six cysteines are substituted by serines may be used.Briefly, compounds are serially diluted in DMSO (working dilutions). ASF-coated 384 well plates are supplemented with 22.8 μL/well of biotinylated hGal-3 or hGal-1 in assay buffer (i.e. 300-1000 ng/mL biotinylated hGal-3 or hGal-1) to which 1.2 μL of compound working dilutions are added and mixed.Plates are incubated for 3 hours at 4° C., then washed with cold assay buffer (3×50 uL), incubated for 1 hour with 25 μL/well of a streptavidin-peroxidase solution (diluted in assay buffer to 80 ng/mL) at 4° C., followed by further washing steps with assay buffer (3×50 uL). Finally, 25 μL/well of ABTS substrate is added.

Galectin-3 = Galectin-3 (Homo sapiens, UniProt P17931); assay: Inhibitory Activity Assay
Chain of Galectin-3 (P17931 whole entry): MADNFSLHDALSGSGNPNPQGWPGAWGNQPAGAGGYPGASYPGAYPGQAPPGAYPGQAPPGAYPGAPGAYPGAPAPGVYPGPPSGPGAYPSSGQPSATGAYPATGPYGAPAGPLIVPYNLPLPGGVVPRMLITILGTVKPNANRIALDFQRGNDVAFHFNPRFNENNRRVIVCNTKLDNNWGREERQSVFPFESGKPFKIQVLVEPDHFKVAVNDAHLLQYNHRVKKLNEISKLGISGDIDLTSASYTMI
Method: as §1

Chain of Galectin-1 (P09382 whole entry): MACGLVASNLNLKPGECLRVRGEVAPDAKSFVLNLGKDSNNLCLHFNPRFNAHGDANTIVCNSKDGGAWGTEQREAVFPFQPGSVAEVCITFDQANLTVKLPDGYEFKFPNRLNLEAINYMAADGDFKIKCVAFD

| IC50 (Galectin-1) [nM] | IC50 (Galectin-3) [nM] | SMILES |
| --- | --- | --- |
| 3210 | 120 | CO[C@@H]1[C@@H](n2cc(-c3ccc(Cl)c(F)c3F)nn2)[C@@H](O)[C@@H](CO)O[C@@H]1Cc1cc(C2(C#N)CCCC2)on1 [US12319672, Example 1.279] |
| > 100000 | 540 | CO[C@@H]1[C@@H](n2cc(-c3ccc(F)c(F)c3F)nn2)[C@@H](O)[C@@H](CO)O[C@@H]1Cc1cc(-c2ccc(F)c(F)c2F)on1 [US12319672, Example 1.230] |
| 1050 | 22 | CO[C@@H]1[C@@H](n2cc(-c3ccc(Br)c(F)c3F)nn2)[C@@H](O)[C@@H](CO)O[C@@H]1Cc1cc(C2CCN(S(C)(=O)=O)CC2)on1 [US12319672, Example 1.155] |
| 1000 | 36 | CC(C)(C)c1cc(C[C@H]2O[C@H](CO)[C@H](O)[C@H](n3cc(-c4ccc(Cl)c(F)c4F)nn3)[C@H]2O)on1 [US12319672, Example 1.302] |
| 3840 | 4040 | Cc1nc2ccc(-c3cn([C@H]4[C@@H](O)[C@@H](CO)O[C@H](CC5CC(C6CCN(C(=O)OC(C)(C)C)CC6)=NO5)[C@@H]4O)nn3)cc2s1 (some centres undefined) [US12319672, Example 1.299] |
| 15700 | 200 | CO[C@@H]1[C@@H](n2cc(-c3ccc(C)c(F)c3F)nn2)[C@H]2OC(C)(C)OC[C@H]2O[C@@H]1Cc1cc(C(C)c2ccccc2)no1 (some centres undefined) [US12319672, Example 1.341] |
| 1450 | 81 | CO[C@@H]1[C@@H](n2cc(-c3ccc(C)c(F)c3F)nn2)[C@@H](O)[C@@H](CO)O[C@@H]1Cc1cc(C2(O)CCC2)no1 [US12319672, Example 2.57] |
| 5090 | 470 | CO[C@@H]1[C@@H](n2cc(-c3cc(F)c(F)c(F)c3)nn2)[C@@H](O)[C@@H](CO)O[C@@H]1CC1=NOC(C(C)(C)O)C1 (some centres undefined) [US12319672, Example 1.68] |
| 960 | 46 | CC(=O)N1CCC(c2cc(C[C@H]3O[C@H](CO)[C@H](O)[C@H](n4cc(-c5cc(F)c(F)c(F)c5)nn4)[C@H]3O)no2)CC1 [US12319672, Example 3.17] |
| 910 | 40 | CO[C@@H]1[C@@H](n2cc(-c3cc(F)c(Cl)c(F)c3)nn2)[C@@H](O)[C@@H](CO)O[C@@H]1Cc1cc(C2CCN(C(C)=O)CC2)on1 [US12319672, Example 1.167] |
| 710 | 43 | CO[C@@H]1[C@@H](n2cc(-c3ccc(Cl)c(F)c3F)nn2)[C@@H](O)[C@@H](CO)O[C@@H]1Cc1cc(C2CCN(C(C)=O)CC2)on1 [US12319672, Example 1.163] |
| 1470 | 140 | CO[C@@H]1[C@@H](n2cc(-c3ccc(F)c(F)c3F)nn2)[C@@H](O)[C@@H](CO)O[C@@H]1Cc1cc(C2(C#N)CCCC2)on1 [US12319672, Example 1.277] |
